The results in this text go back to patent US11104677B2, “Toll-like receptor 9 antagonists” (FRAUNHOFER-GESELLSCHAFT ZUR FÖRDERUNG DER ANGEWANDTEN …, priority 2015, dated 2021).

The structures appear in SMILES notation. pIC50: −log10 of the molar value.

One assay deals with T1, TLR9 (Homo sapiens, UniProt Q9NR96).
T1 construct: expressed in transfected cells; host or cells: NIH 3T3 fibroblasts (mouse), stably transfected, NF-kB driven SEAP reporter
T1 sequence (Q9NR96 26-1032): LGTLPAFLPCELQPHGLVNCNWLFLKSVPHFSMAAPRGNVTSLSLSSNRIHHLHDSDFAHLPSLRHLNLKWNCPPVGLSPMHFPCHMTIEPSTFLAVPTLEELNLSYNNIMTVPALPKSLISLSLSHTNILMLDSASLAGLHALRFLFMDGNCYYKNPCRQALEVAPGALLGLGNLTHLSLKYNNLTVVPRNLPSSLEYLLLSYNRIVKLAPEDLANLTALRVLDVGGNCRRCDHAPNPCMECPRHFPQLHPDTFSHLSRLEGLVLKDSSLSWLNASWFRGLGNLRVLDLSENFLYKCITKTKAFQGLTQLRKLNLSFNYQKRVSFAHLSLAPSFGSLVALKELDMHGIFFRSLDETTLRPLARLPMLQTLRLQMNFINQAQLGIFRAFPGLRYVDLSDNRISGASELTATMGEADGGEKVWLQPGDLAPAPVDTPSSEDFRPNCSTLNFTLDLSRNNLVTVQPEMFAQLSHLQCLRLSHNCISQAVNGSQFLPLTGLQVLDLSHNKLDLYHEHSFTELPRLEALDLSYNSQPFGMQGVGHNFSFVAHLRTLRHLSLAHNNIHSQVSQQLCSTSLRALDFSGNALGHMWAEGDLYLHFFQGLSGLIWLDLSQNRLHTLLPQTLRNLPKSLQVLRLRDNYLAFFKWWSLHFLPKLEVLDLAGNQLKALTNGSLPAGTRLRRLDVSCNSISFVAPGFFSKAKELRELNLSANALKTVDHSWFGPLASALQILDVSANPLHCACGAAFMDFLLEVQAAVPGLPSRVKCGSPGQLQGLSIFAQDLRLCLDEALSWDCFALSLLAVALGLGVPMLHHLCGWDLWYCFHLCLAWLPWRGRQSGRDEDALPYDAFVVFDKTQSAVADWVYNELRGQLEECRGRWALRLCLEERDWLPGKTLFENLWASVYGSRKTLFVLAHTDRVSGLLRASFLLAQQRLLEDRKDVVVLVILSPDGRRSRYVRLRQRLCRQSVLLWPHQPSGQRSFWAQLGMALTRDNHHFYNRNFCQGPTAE
Nature of the assay: cell-based reporter assay (NIH 3T3 reporter cell line expressing TLR9, NF-kB driven SEAP, stimulated with CpG ODN 2216). Particulars: Table 5; first 30 candidates; ODN 2216 agonist; n≥3; read-out: IC50 in. As to the method:
In context with the present invention, the ‘IC50 value’ is the half maximum inhibitory concentration which is a measure of the effectiveness of a substance inhibiting the function of the TLR9. The IC50 value can be determined by a functional antagonist assay or a competition binding assay. Preferably, the IC50 value is determined by the cell-based reporter assay in section 3, below, of the examples.
A cell based test-system that allows PAMPs to be identified and differentiated via pattern recognition receptors (PRRs) in a reporter gene assay was used (DE 10 2006 031 483, EP 2 041 172). For this assay human PRRs and co-receptors were stably transfected and expressed in NIH 3T3 fibroblasts. This cell line expresses no other PRRs and contains a reporter gene which is activated by PRR-activation. The induction of receptor complexes by their ligands leads, after a signalling cascade, to an activation of transcription factor NF-kB, which regulates the expression of an additional integrated reporter gene, a secreted alkaline phosphatase (SEAP) (Burger-Kentischer, A.; Abele, I. S.; Finkelmeier, D.; Wiesmüller, K.-H.; Rupp, S., A new cell-based innate immune receptor assay for the examination of receptor activity, ligand specificity, signalling pathways and the detection of pyrogens. J. Immunol. Methods 2010, 358 (1), 93-103).
This test system mimics elements of the innate human immune system and can selectively recognize a large number of PAMPs with high sensitivity. Consequently, the PRR-specific cell-based high-throughput feature of the reporter cell lines will provide a fast, flexible and convenient means for lead compound screening in the pharmaceutical drug development fields. For the in vitro screening of the top candidates identified at IDR, the Fraunhofer IGB used this cell-based reporter system to identify TLR9 antagonists in order to determine their activity as well their biocompatibility. Within a first step the NIH3T3 cell line expressing TLR9 was used to measure the inhibitory effect of the TLR9 antagonists.
For the experiment the reporter cell line expressing TL9 was plated in 96-well cell culture plates at a density of 0.3×10^5 cells in DMEM media supplemented with 10% FCS (Invitrogen), 1% L-glutamine (200 mM Invitrogen) and 1% Penicillin-Streptomycin (PenStrep: 100×, Invitrogen). The cells were incubated for 16 h to grow adherent monolayers at 37° C. in a 5% saturated CO2 humidified atmosphere. After overnight incubation, the media was removed and replaced by DMEM medium supplemented with 1% PenStrep, 1% L-glutamine and 0.5% FCS. The media change is important to avoid a unspecific background signal, caused by active remaining phosphatases present in the FCS. The cells are then stimulated with a specific ligand non-methylated CpG ODN 2216 agonist (Invivogen) and the potential antagonists using different concentrations, namely within a range of concentrations of the potential antagonists starting with 0.025 μM (for the antagonist with the highest activity) up to 14 mM for the antagonists with lowest activities.
The ODN ligand has the sequence 5′-ggGGGACGA:TCGTCgggggg-3′ (SEQ ID No. 1). Those represented by capital letters are phosphodiesters, and those in small letters are phosphorothioate. The Palindrome is underlined.
The cells were again incubated in a humidified atmosphere for 16h leading to the expression or reduced expression of SEAP and its secretion into the media. Binding of the antagonist leads to a block of the TLR9, resulting in no or in a reduced expression of the reporter gene (SEAP). Therefore, 50 μl supernatant were taken from the cells and transferred into a 96-well PS microplate flat bottom (Greiner BIO-ONE). The enzyme substrate reaction was initiated by adding 50 μl of the specific substrate. SEAP catalyses the hydrolysis of pNPP to the final product para-nitrophenol (yellow), which can be detected in a photometric analysis using an UV-VIS reader at 405 nm. […]
Consider `COc1ccc2c(-c3ccccc3)cc(N3CCOCC3)nc2c1` [T0513-5752, O1CCN(CC1)c1nc2c(ccc(OC)c2)c(c1)-c1ccccc1], for which the negative-log IC50 (pIC50) was 5.11.

Turning to `COc1ccc2nc3c(nc2c1)-c1cccc2cccc-3c12` [T0504-1221, O(C)c1cc2nc3-c4c5c(-c3nc2cc1)cccc5ccc4], the pIC50 is 4.18.

Turning to `CN(C)c1ccc(/C=C/c2ccc3ccccc3n2)cc1` [T0506-4124, n1c2c(ccc1\C═C\c1ccc(N(C)C)cc1)cccc2], the pIC50 is 3.51.

Regarding `COc1ccc(/C=C/c2ccc3ccccc3n2)cc1OC` [T6895608, O(C)c1cc(ccc1OC)\C═C\c1nc2c(cc1)cccc2], the pIC50 is 5.05.

Consider `c1ccc(N2CCN(c3ccc4ccccc4n3)CC2)cc1` [T6495030, n1c2c(ccc1N1CCN(CC1)c1ccccc1)cccc2], for which the pIC50 is 3.66.

As for `COc1ccc(/C=N/c2ccc3nc(C)ccc3c2)cc1` [T0501-1111, O(C)c1ccc(cc1)\C═N\c1cc2c(nc(cc2)C)cc1], the negative-log IC50 (pIC50) is 3.31.

The same assay, now with this note: in the presence of 5 μM of the ODN 2216 agonist; read-out: IC50 in.
On to `Clc1ccc(-c2nn(Cc3ccccc3)cc2CN2CCN(CCN3CCCC3)CC2)cc1` [T5535483], for which the pIC50 is 5.42.

Turning to `CCN1CCC(NCc2cn(-c3ccccc3)nc2-c2ccc3c(c2)OCCO3)CC1` [T5581955], the pIC50 was 5.84.
